According to patent US8263044B2, “Stilbene like compounds as novel HDAC inhibitors” (Orchid Research Laboratories Limited, priority 2005, dated 2012):
Like-named read-outs stand apart in the source and are kept apart here.

Columns and labels:
HCT 116 cells = assay: cells; conditions: for GI50: read-out: HCT116 GI50; for CC50: read-out: HCT116 LC50
Experimental: (§1) Experimental drugs are screened for anti-cancer activity in three cell lines for their GI50, TGI and LC50 values (using five concentrations for each compound). The cell lines are maintained in DMEM containing 10% fetal bovine serum. 96 well micro titer plates are inoculated with cells in 100 μL for 24 h at 37° C., 5% CO2, 95% air and 100% relative humidity. 5000 HCT 116 cells/well, 5000 NCIH 460 cells/well and 5000 U251 cells/well are plated. A separate plate with these cell lines is also inoculated to determine cell viability before the addition of the compounds (T0) (See Table I).
(§2) Following 24-hour incubation, experimental drugs are added to the 96 well plates. Each plate contains one of the above cell lines and the following in triplicate: five different concentrations (0.01, 0.1, 1, 10 and 100 μM) of four different compounds, appropriate dilutions of a cytotoxic standard and control (untreated) wells. Compounds are dissolved in DMSO to make 20 mM stock solutions on the day of drug addition and frozen at −20° C. Serial dilutions of these 20 mM stock solutions are made in complete growth medium such that 100 μL of these drug solutions in medium, of final concentrations equaling 0.01, 0.1, 1, 10 and 100 μM can be added to the cells in triplicate. […] (See Table I).
(§3) For T0 measurement, 24 hours after seeding the cells, 10 μL of 3-(4,5-Dimethyl-2-thiazolyl)-2,5-diphenyl-2H-tetrazolium (MTT) solution per well is added and incubation carried out for 3 hours at 37° C., 5% CO2, 95% air and 100% relative humidity, protected from light. Cells incubated with compounds for 48 hours are treated similarly except with the addition of 20 μL MTT solution per well and a subsequent incubation under the same conditions. After 3 hours of MTT incubation, well contents are aspirated carefully followed by addition of 150 μL DMSO per well. Plates are agitated to ensure solution of the formazan crystals in DMSO and absorbance read at 570 nm. (See Table I).
(§4) Percent growth is calculated for each compound's concentration relative to the control and zero measurement wells (T0; viability right before compound addition).
(§5) If a test well's O.D. value is lower than the T0 measurement for that cell line, then, % Growth=(test−zero)/zero×100

MDAMB231/U251 [1] = assay: cells; conditions: 48 h; for GI50: read-out: MDAMB231/U251 GI50
Experimental: as §1, §2, §3, §4, §5

NCIH 460 cells = assay: cells; conditions: for GI50: read-out: NCIH460 GI50; for CC50: read-out: NCIH460 LC50
Experimental: as §1, §2, §3, §4, §5

[2] = tested on: NCIH460, HCT116, MDAMB231/U251; assay: Anti-cancer screen, mean GI50 over the cell lines; format: cell-based; conditions: mean over the three cell lines; no unit in table
Experimental: as §1, §2, §3
Percent growth is calculated for each compound's concentration relative to the control and zero measurement wells (T0; viability right before compound addition). […]

[3] = tested on: HDAC activity (Mouse Liver Extract); assay: Histone Deacetylase (HDAC) Inhibition Assay using Boc-Lys (Ac)-AMC Substrate; format: biochemical; conditions: mouse liver enzyme; for HDAC Inhibition 1 μM: inhibitor at 1 μM; for HDAC Inhibition 1 μM / HDAC Inhibition 10 μM: in % (unit assumed); for HDAC Inhibition 10 μM: inhibitor at 10 μM
Experimental: Histone Deacetylase (HDAC) Inhibition Assay using Boc-Lys (Ac)-AMC Substrate: Inhibition of HDAC has been implicated to modulate transcription and to induce apoptosis or differentiation in cancer cells. The fluorometric assay provides a fast and fluorescence based method that eliminates radioactivity, extractions or chromatography, as used in traditional assays. The assay based on two steps. First, the HDAC fluorometric substrate, which comprises an acetylated lysine side chain, is incubated with a sample containing HDAC activity (Mouse Liver Extract). Deacetylation of the substrate sensitizes the substrate, in the second step; treatment with the Trypsin stop solution produces a fluorophore that can be easily analyzed using fluorescence plate reader.
Assay was done in 96 well black microplate and total volume of the assay is 100 ul. Mouse liver enzyme is diluted 1:6 with HDAC buffer. Enzyme cocktail made of 10 ul of diluted enzyme and 30 ul of HDAC buffer. 40 ul of enzyme cocktail dispensed into each well. 10 ul of different concentrations of inhibitor added in to each well, except enzyme control well. Preincubated the plate at 30° C. for 5 minutes. The HDAC reaction is started by adding 50 ul of HDAC substrate (Boc-Lys (Ac)-AMC Substrate) solution. Incubated the plate at 30° C. for 30 minutes. Adding 100 ul of Trypsin stop solution stops the reaction. The plate is incubated again at 30° C. for 20-30 minutes. The release of AMC is monitored by measuring the fluorescence at excitation wavelength of 365 or 360 nm and emission wavelength of 440 or 460 nm. Buffer and substrate alone kept for blank subtraction. (Dennis Wegener et al, Anal. Biochem, 321, 2003, 202-208).

MDAMB231/U251 [4] = assay: cells; conditions: 48 h, read-out: MDAMB231/U251 LC50
[5] = HCT116, MTT, 48 h, tested at 0.01-100 μM, no unit in table
[6] = MDAMB231/U251, MTT, tested at 0.01-100 μM, no unit in table
[7] = NCIH460, MTT, 48 h, tested at 0.01-100 μM, no unit in table

| Structure (SMILES) | GI50 (HCT 116 cells; Homo sapiens, HCT-116, 48 h) [µM] | CC50 (HCT 116 cells; Homo sapiens, HCT-116, 48 h) [µM] | GI50 (MDAMB231/U251 [1]) [µM] | GI50 (NCIH 460 cells; Homo sapiens, NCI-H460, 48 h) [µM] | CC50 (NCIH 460 cells; Homo sapiens, NCI-H460, 48 h) [µM] | GI50 [2] [µM] | HDAC Inhibition 1 μM [3] | HDAC Inhibition 10 μM [3] | IC50 [3] [µM] | CC50 (MDAMB231/U251 [4]) [µM] | HCT116 TGI (HCT 116 cells; [5]) | GI50 (HCT 116 cells; [5]) [µM] | CC50 (HCT 116 cells; [5]) [µM] | MDAMB231/U251 TGI (MDAMB231/U251 [1]; [6]) | GI50 (MDAMB231/U251 [1]; [6]) [µM] | CC50 (MDAMB231/U251 [1]; read-out: MDAMB231/U251 LC50, MDAMB231/U251, MTT, tested at 0.01-100 μM, no unit in table) [µM] | NCIH460 TGI (NCIH 460 cells; [7]) | GI50 (NCIH 460 cells; [7]) [µM] | CC50 (NCIH 460 cells; [7]) [µM] |
| --- | --- | --- | --- | --- | --- | --- | --- | --- | --- | --- | --- | --- | --- | --- | --- | --- | --- | --- | --- |
| COc1cc(/C=C(\C(=O)NCCCCCC(=O)NO)c2ccc(F)cc2)cc(OC)c1 [Example 1, (2Z)-3-(3,5-Dimethoxyphenyl)-2-(4-fluorophenyl)-N-[6-(hydroxyamino)-6-oxohexyl]acrylamide] | 5 | 70 | 0.1 | > 100 | > 100 | 2.6 | 53.76 | 66.42 | 0.22 | 75 |  |  |  |  |  |  |  |  |  |
| COc1cc(/C=C(\C(=O)NCCCCCC(=O)Nc2ccccc2O)c2ccc(F)cc2)cc(OC)c1 [Example 2] | 30 | 73 | 30 | 27 | 56 | 29 | 7.73 | 10.46 |  | > 100 |  |  |  |  |  |  |  |  |  |
| COc1cc(/C=C(\C(=O)NCCCCCC(=O)Nc2cccc(O)c2)c2ccc(F)cc2)cc(OC)c1 [Example 3] | 40 | > 100 | 73 | 50 | > 100 | 54.3 | −6.41 | −6.45 |  | > 100 |  |  |  |  |  |  |  |  |  |
| COc1cc(/C=C(\C(=O)NCCCCCC(=O)Nc2ccccc2N)c2ccc(O)cc2)cc(OC)c1 [Example 4] | 9.4 | 80 | 55 | 45 | > 100 | 36 | 16.9 | 24 |  | > 100 |  |  |  |  |  |  |  |  |  |
| COc1cc(/C=C(\C(=O)NCCCCCC(=O)Nc2ccccc2O)c2ccc(O)cc2)cc(OC)c1 [Example 5] | 35 | 90 | 65 | 50 | 100 | 50 | 19.6 | 35.3 |  | 92 |  |  |  |  |  |  |  |  |  |
| COc1cc(/C=C(\C(=O)NCCCCCC(=O)Nc2ccccc2O)c2ccc(O)cc2)cc(OC)c1OC [Example 6] | 38 | 91 | 60 | 44 | 85 | 47 | 15.9 | 36.1 |  | > 100 |  |  |  |  |  |  |  |  |  |
| COc1cc(/C=C(\C(=O)NCCCCCC(=O)N(C)OC)c2ccc(O)cc2)cc(OC)c1OC [Example 7, (2Z)-3-(3,4,5-Trimethoxyphenyl)-2-(4-hydroxyphenyl)-N-[6-(N,O dimethylamine)-6-oxohexyl]acrylamide] | 0.98 | > 100 | 0.8 | 0.01 | 10 | 0.6 | 7.3 | 3.8 |  | > 100 |  |  |  |  |  |  |  |  |  |
| Cc1ncsc1/C=C(/C(=O)NCCCCCC(=O)NO)c1cccs1 [Example 8, [(2Z)-3-(4-Methyl-1,3-thiazol-5-yl)-2-(2-thienyl))-N-[6-(hydroxyamino)-6-oxohexyl]acrylamide] | 8 | > 100 | 6 | 15 | > 100 | 9.7 | 77.63 | 99.67 | 0.55 | 96 |  |  |  |  |  |  |  |  |  |
| COc1cc(/C=C(\C(=O)NCCCCCC(=O)NO)c2ccc([N+](=O)[O-])cc2)cc(OC)c1 [Example 9, (2Z)-3-(3,5-Dimethoxyphenyl)-2-(4-nitrophenyl)-N-[6-(hydroxyamino)-6-oxohexyl]acrylamide] | 20 | 95 | 28 | 45 | 100 | 31 | 65.5 | 98.28 | 0.7 | 90 |  |  |  |  |  |  |  |  |  |
| O=C(CCCCCNC(=O)/C(=C\c1cc(F)cc(F)c1F)c1ccc([N+](=O)[O-])cc1)NO [Example 27, (2Z)-3-(2,3,5-Trifluorophenyl)-2-(4-nitrophenyl)-N-[6-(hydroxyamino)-6-oxohexyl]acrylamide] | 7 | > 100 | 7.5 | 30 | 96 | 14.8 |  |  |  | 82 |  |  |  |  |  |  |  |  |  |
| COc1ccc(/C=C(\C(=O)NCCCCCC(=O)NO)c2ccccc2)cc1 [Example 29, (2Z)-3-(4-Methoxyphenyl)-2-(phenyl)-N-[6-(hydroxyamino)-6-oxohexyl]acrylamide] | 5 | 78 | 6 | 28 | 89 | 13 |  |  |  | 90 |  |  |  |  |  |  |  |  |  |
| O=C(CCCCCNC(=O)/C(=C\c1ccc(F)c(F)c1)c1ccc(F)cc1)Nc1nccs1 [Example 36] | > 100 | > 100 | 0.2 | 2 | > 100 | 1.1 |  |  |  | > 100 |  |  |  |  |  |  |  |  |  |
| Cc1cc(/C=C(\C(=O)NCCCCCC(=O)NO)c2ccc(F)cc2)ccc1F [Example 45, (2Z)-3-(4-Fluoro-3-methylphenyl)-2-(4-fluorophenyl)-N-[6-(hydroxyamino)-6-oxohexyl]acrylamide] | 6.8 | 73 | 5 | 16 | 89 | 9.3 |  |  |  | > 100 |  |  |  |  |  |  |  |  |  |
| CSc1ccc(/C=C(\C(=O)NCCCCCC(=O)NOCc2ccccc2)c2ccc(F)cc2)cc1 [Example 51, (2Z)-3-(4-Thiomethylphenyl)-2-(4-fluorophenyl)-N-[6-(O-benzyl hydroxyamino)-6-oxohexyl]acrylamide] |  |  |  |  |  | 16.5 |  |  |  |  | 65 | 10 | 84 | 35 | 9.6 | 86 | 80 | 30 | > 100 |
